system: MOLM-13 cells; assay: MOLM-13 Cell Proliferation Assay (indicator of DHODH inhibition); format: cell-based; details: Homo sapiens, 72 Hours of culture, CellTiter-Glo, no uridine
How it was run: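 Proliferation readout via CellTiter-Glo luminescence after 72 h compound treatment (37 °C, 5% CO2, 0.5% DMSO) of MOLM-13 cells seeded at 10^4 per well in RPMI 1640/10% FBS, used as a DHODH-inhibition indicator since these cells rely on de novo pyrimidine synthesis.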

IC50	Compound
2.2 nM	Fc1cccc(C2c3[nH]c4ccc(Cl)cc4c3CCN2c2nccc(C(F)(F)F)n2)c1F (stereo not shown) [Compound 119, 6-chloro-1-(2,3-difluorophenyl)-2-[4-(trifluoromethyl)pyrimidin-2-yl]-2,3,4,9-tetrahydro-1H-pyrido[3,4-b]indole]
3.7 nM	COc1ccc(C2c3[nH]c4ccc(Cl)cc4c3CCN2c2nccc(C(F)(F)F)n2)c(F)c1F (stereo not shown) [Compound 120, 6-chloro-1-(2,3-difluoro-4-methoxyphenyl)-2-[4-(trifluoromethyl)pyrimidin-2-yl]-2,3,4,9-tetrahydro-1H-pyrido[3,4-b]indole]
24.6 nM	N#Cc1ccnc(N2CCc3c([nH]c4cc(F)c(Cl)cc34)C2c2ccc(C(F)(F)F)cc2)n1 (stereo not shown) [Compound 121, 2-{6-chloro-7-fluoro-1-[4-(trifluoromethyl)phenyl]-1,3,4,9-tetrahydro-2H-pyrido[3,4-b]indol-2-yl}pyrimidine-4-carbonitrile]
8.2 nM	CN(C)c1ccc(C2c3[nH]c4cc(F)c(Cl)cc4c3CCN2c2nccc(C(F)(F)F)n2)cn1 (stereo not shown) [Compound 122, 5-{6-chloro-7-fluoro-2-[4-(trifluoromethyl)pyrimidin-2-yl]-2,3,4,9-tetrahydro-1H-pyrido[3,4-b]indol-1-yl}-N,N-dimethylpyridin-2-amine]
12.1 nM	Cc1ccc(C2c3[nH]c4cc(F)c(Cl)cc4c3CCN2c2ncc(F)c(C)n2)cc1 (stereo not shown) [Compound 123, 6-chloro-7-fluoro-2-(5-fluoro-4-methylpyrimidin-2-yl)-1-(4-methylphenyl)-2,3,4,9-tetrahydro-1H-pyrido[3,4-b]indole]
8.6 nM	Cc1nc(N2CCc3c([nH]c4cc(F)c(Cl)cc34)C2c2cccc(F)c2F)ncc1F (stereo not shown) [Compound 124, 6-chloro-1-(2,3-difluorophenyl)-7-fluoro-2-(5-fluoro-4-methylpyrimidin-2-yl)-2,3,4,9-tetrahydro-1H-pyrido[3,4-b]indole]
3.2 nM	Cc1ccc(C2c3[nH]c4cc(F)c(Cl)cc4c3CCN2c2ncc(F)c(C)n2)c(F)c1F (stereo not shown) [Compound 125, 6-chloro-1-(2,3-difluoro-4-methylphenyl)-7-fluoro-2-(5-fluoro-4-methylpyrimidin-2-yl)-2,3,4,9-tetrahydro-1H-pyrido[3,4-b]indole]
21.3 nM	Cc1ccnc(N2CCc3c([nH]c4cc(F)c(Cl)cc34)C2c2ccc(N(C)C)nc2)n1 (stereo not shown) [Compound 126, 5-[6-chloro-7-fluoro-2-(4-methylpyrimidin-2-yl)-2,3,4,9-tetrahydro-1H-pyrido[3,4-b]indol-1-yl]-N,N-dimethylpyridin-2-amine]
0.9 nM	Cc1ccc(C2c3[nH]c4ccc(Cl)cc4c3CCN2c2nccc(C(F)(F)F)n2)c(F)c1F (stereo not shown) [Compound 128, 6-chloro-1-(2,3-difluoro-4-methylphenyl)-2-[4-(trifluoromethyl)pyrimidin-2-yl]-2,3,4,9-tetrahydro-1H-pyrido[3,4-b]indole]
7.6 nM	Cc1cc(C)nc(N2CCc3c([nH]c4cc(F)c(Cl)cc34)C2c2cccc(F)c2F)n1 (stereo not shown) [Compound 129, 6-chloro-1-(2,3-difluorophenyl)-2-(4,6-dimethylpyrimidin-2-yl)-7-fluoro-2,3,4,9-tetrahydro-1H-pyrido[3,4-b]indole]
5.8 nM	Cc1ccc(C2c3[nH]c4cc(F)c(Cl)cc4c3CCN2c2ncc(Cl)cn2)c(F)c1F (stereo not shown) [Compound 130, 6-chloro-2-(5-chloropyrimidin-2-yl)-1-(2,3-difluoro-4-methylphenyl)-7-fluoro-2,3,4,9-tetrahydro-1H-pyrido[3,4-b]indole]
9.2 nM	Fc1cc2[nH]c3c(c2cc1Cl)CCN(c1ncc(Cl)cn1)C3c1cccc(F)c1F (stereo not shown) [Compound 131, 6-chloro-2-(5-chloropyrimidin-2-yl)-1-(2,3-difluorophenyl)-7-fluoro-2,3,4,9-tetrahydro-1H-pyrido[3,4-b]indole]
2.1 nM	Cc1cc(C)nc(N2CCc3c([nH]c4cc(F)c(Cl)cc34)C2c2ccc(C)c(F)c2F)n1 (stereo not shown) [Compound 132, 6-chloro-1-(2,3-difluoro-4-methylphenyl)-2-(4,6-dimethylpyrimidin-2-yl)-7-fluoro-2,3,4,9-tetrahydro-1H-pyrido[3,4-b]indole]
11.2 nM	Fc1cc2[nH]c3c(c2cc1Cl)CCN(c1ncc(C(F)(F)F)cn1)C3c1cccc(F)c1F (stereo not shown) [Compound 133, 6-chloro-1-(2,3-difluorophenyl)-7-fluoro-2-[5-(trifluoromethyl)pyrimidin-2-yl]-2,3,4,9-tetrahydro-1H-pyrido[3,4-b]indole]
21.7 nM	Cc1ccc(C2c3[nH]c4cc(F)c(Cl)cc4c3CCN2c2ncc(C)cn2)cc1 (stereo not shown) [Compound 134, 6-chloro-7-fluoro-1-(4-methylphenyl)-2-(5-methylpyrimidin-2-yl)-2,3,4,9-tetrahydro-1H-pyrido[3,4-b]indole]
10.2 nM	Cc1ccc(C2c3[nH]c4ccc(Cl)c(F)c4c3CCN2c2ncc(C)cn2)cc1 (stereo not shown) [Compound 135, 6-chloro-5-fluoro-1-(4-methylphenyl)-2-(5-methylpyrimidin-2-yl)-2,3,4,9-tetrahydro-1H-pyrido[3,4-b]indole]

IC50	Compound
7.5 nM	Cc1cnc(N2CCc3c([nH]c4cc(F)c(Cl)cc34)C2c2ccc(C)c(F)c2F)nc1 (stereo not shown) [Compound 136, 6-chloro-1-(2,3-difluoro-4-methylphenyl)-7-fluoro-2-(5-methylpyrimidin-2-yl)-2,3,4,9-tetrahydro-1H-pyrido[3,4-b]indole]
2.4 nM	Cc1cnc(N2CCc3c([nH]c4ccc(Cl)c(F)c34)C2c2ccc(C)c(F)c2F)nc1 (stereo not shown) [Compound 137, 6-chloro-1-(2,3-difluoro-4-methylphenyl)-5-fluoro-2-(5-methylpyrimidin-2-yl)-2,3,4,9-tetrahydro-1H-pyrido[3,4-b]indole]
3.5 nM	Cc1ccc(C2c3[nH]c4cc(F)c(Cl)cc4c3CCN2c2ncc(F)cn2)c(F)c1F (stereo not shown) [Compound 138, 6-chloro-1-(2,3-difluoro-4-methylphenyl)-7-fluoro-2-(5-fluoropyrimidin-2-yl)-2,3,4,9-tetrahydro-1H-pyrido[3,4-b]indole]
3.6 nM	Cc1ccnc(N2CCc3c([nH]c4cc(F)c(Cl)cc34)C2c2ccc(C)c(F)c2F)n1 (stereo not shown) [Compound 139, 6-chloro-1-(2,3-difluoro-4-methylphenyl)-7-fluoro-2-(4-methylpyrimidin-2-yl)-2,3,4,9-tetrahydro-1H-pyrido[3,4-b]indole]
1 nM	Cc1ccc(C2c3[nH]c4cc(F)c(Cl)cc4c3CCN2c2nccc(C(F)(F)F)n2)c(F)c1F (stereo not shown) [Compound 140, 6-chloro-1-(2,3-difluoro-4-methylphenyl)-7-fluoro-2-[4-(trifluoromethyl)pyrimidin-2-yl]-2,3,4,9-tetrahydro-1H-pyrido[3,4-b]indole]
8.7 nM	Cc1ccc(C2c3[nH]c4cc(F)c(Cl)cc4c3CCN2c2nccc(C#N)n2)c(F)c1F (stereo not shown) [Compound 141, 2-[6-chloro-1-(2,3-difluoro-4-methylphenyl)-7-fluoro-1,3,4,9-tetrahydro-2H-pyrido[3,4-b]indol-2-yl]pyrimidine-4-carbonitrile]
4.3 nM	Cc1ccc(C2c3[nH]c4cc(F)c(Cl)cc4c3CCN2c2ncc(C(F)(F)F)cn2)c(F)c1F (stereo not shown) [Compound 142, 6-chloro-1-(2,3-difluoro-4-methylphenyl)-7-fluoro-2-[5-(trifluoromethyl)pyrimidin-2-yl]-2,3,4,9-tetrahydro-1H-pyrido[3,4-b]indole]
1.2 nM	Cc1ccc(C2c3[nH]c4cc(F)c(Cl)cc4c3CCN2c2nc(C)c(F)c(C)n2)c(F)c1F (stereo not shown) [Compound 143, 6-chloro-1-(2,3-difluoro-4-methylphenyl)-7-fluoro-2-(5-fluoro-4,6-dimethylpyrimidin-2-yl)-2,3,4,9-tetrahydro-1H-pyrido[3,4-b]indole]
17.2 nM	Fc1cncc(C2c3[nH]c4cc(F)c(Cl)cc4c3CCN2c2nccc(C(F)(F)F)n2)c1 (stereo not shown) [Compound 145, 6-chloro-7-fluoro-1-(5-fluoropyridin-3-yl)-2-[4-(trifluoromethyl)pyrimidin-2-yl]-2,3,4,9-tetrahydro-1H-pyrido[3,4-b]indole]
11.4 nM	Fc1cncc(C2c3[nH]c4ccc(Cl)c(F)c4c3CCN2c2nccc(C(F)(F)F)n2)c1 (stereo not shown) [Compound 146, 6-chloro-5-fluoro-1-(5-fluoropyridin-3-yl)-2-[4-(trifluoromethyl)pyrimidin-2-yl]-2,3,4,9-tetrahydro-1H-pyrido[3,4-b]indole]
1.3 nM	Cc1cc(C(F)(F)F)nc(N2CCc3c([nH]c4cc(F)c(Cl)cc34)C2c2cccc(F)c2F)n1 (stereo not shown) [Compound 147, 6-chloro-1-(2,3-difluorophenyl)-7-fluoro-2-[4-methyl-6-(trifluoromethyl)pyrimidin-2-yl]-2,3,4,9-tetrahydro-1H-pyrido[3,4-b]indole]
0.9 nM	Cc1cc(C(F)(F)F)nc(N2CCc3c([nH]c4cc(F)c(Cl)cc34)C2c2ccc(C)c(F)c2F)n1 (stereo not shown) [Compound 148, 6-chloro-1-(2,3-difluoro-4-methylphenyl)-7-fluoro-2-[4-methyl-6-(trifluoromethyl)pyrimidin-2-yl]-2,3,4,9-tetrahydro-1H-pyrido[3,4-b]indole]
8.9 nM	NS(=O)(=O)c1ccc(C2c3[nH]c4ccc(Cl)c(F)c4c3CCN2c2nccc(C(F)(F)F)n2)cc1 (stereo not shown) [Compound 150, 4-{6-chloro-5-fluoro-2-[4-(trifluoromethyl)pyrimidin-2-yl]-2,3,4,9-tetrahydro-1H-pyrido[3,4-b]indol-1-yl}benzene-1-sulfonamide]
4.5 nM	Cc1ccc(C2c3[nH]c4cc(F)c(Cl)cc4c3CCN2c2nc(C)cc(C#N)n2)cc1 (stereo not shown) [Compound 151, 2-[6-chloro-7-fluoro-1-(4-methylphenyl)-1,3,4,9-tetrahydro-2H-pyrido[3,4-b]indol-2-yl]-6-methylpyrimidine-4-carbonitrile]
3.7 nM	Cc1cc(C#N)nc(N2CCc3c([nH]c4cc(F)c(Cl)cc34)C2c2cccc(F)c2F)n1 (stereo not shown) [Compound 152, 2-[6-chloro-1-(2,3-difluorophenyl)-7-fluoro-1,3,4,9-tetrahydro-2H-pyrido[3,4-b]indol-2-yl]-6-methylpyrimidine-4-carbonitrile]

Reference: patent US20250186437A1, “CARBOLINE COMPOUNDS AND USE THEREOF” (PTC Therapeutics, Inc., priority 2021, published 2025)
